# Results published in US11324748B2, “Vasodilators for treatment of heart failure” (NORTHEAST OHIO MEDICAL UNIVERSITY, priority 2017, dated 2022).
# Where a name gives a salt, the structure may show the parent alone.
# Assays:
# [1] = system: heart failure (HF) induced by transaortic constriction (TAC); assay: Transaortic constriction (TAC) heart failure in mice, echocardiography; chromonar or vehicle from end of week 13; type: in vivo
# Description: Ejection fraction is the percentage of blood in the left ventricular chamber that the heart ejects per beat. Under normal conditions, the heart will eject 60-70% of left ventricular volume with each contraction, but the failing heart ejects considerably less. After the control measurements to establish baseline % EF, mice underwent surgery to constrict the aortic artery. This procedure, termed transaortic constriction (TAC), causes the heart to pump against a high blood pressure, which causes it to fail. […] At the end of the 13th week, mice were either treated with chromonar (as continuous infusion) or a vehicle (that the chromonar was dissolved in).
# Another way of assessing the effectiveness of a therapy in heart failure is to determine how much volume is in the left ventricle before it begins to contract (termed diastolic volume). When contractile function of the heart declines, this volume progressively increases. This volume is important for a number of reasons. First, it is directly related to energy consumption of the heart (as the volume increases energy consumption is increased). Second, if this volume becomes too large, the heart muscle can be overstretched and will contract even more poorly—this is referred to as decompensated heart failure. Third, as the diastolic volume increases pressures and volumes “upstream” in the atrium and pulmonary vessels will also increase. […]
# [2] = system: myocardial blood flow in the failing heart; assay: Myocardial blood flow by myocardial contrast echocardiography during norepinephrine cardiac stress test in HF mice; type: in vivo; settings: FIG. 2 right
# Protocol: After the control measurements to establish baseline % EF, mice underwent surgery to constrict the aortic artery. This procedure, termed transaortic constriction (TAC), causes the heart to pump against a high blood pressure, which causes it to fail. […] At the end of the 13th week, mice were either treated with chromonar (as continuous infusion) or a vehicle (that the chromonar was dissolved in).
# Myocardial contrast echocardiography (MCE) was used to measure myocardial blood flow in both groups of mice. […] Mice were determined to be in HF when EF<40%). After the development of failure, myocardial blood flow was measured during a cardiac stress test produced by infusion of norepinephrine to increase myocardial metabolic demands. A plot of cardiac work vs MBF was made for the sham mice and for those in HF. To estimate metabolic demands, the index wall stress rate product (WSRP) was developed.
# Takotsubo Syndrome = Takotsubo Syndrome produced by TAC, ventricular function, FIG. 11; type: in vivo, mice; settings: 4 weeks, 2 weeks of treatment
# [3] = system: heart failure induced by TAC (transaortic constriction); settings: TAC mice, treatment started at week 5; FIG. 7
# [4] = system: mice with heart failure (HFrEF); assay: Treadmill exercise time and whole body oxygen consumption in mice with heart failure, FIG. 9
Structure (SMILES),"cardiac function (ejection fraction, % EF) ([1]; treated at end of 13th week, continuous infusion, FIG. 2 left)","Left Ventricular Diastolic Volume ([1]; treatment at end of week 13, FIG. 3)",relationship between MBF and cardiac work (WSRP) ([2]; failing heart after chromonar),"myocardial blood flow (MBF) ([2]; failing heart, during changes in cardiac work (WSRP))",ventricular function (EF %) (Takotsubo Syndrome),cardiac function (EF %) [3],total exercise time on a treadmill [4],whole body oxygen consumption ([4]; within 5 minutes of exercise)
"CCOC(=O)COc1ccc2c(C)c(CCN(CC)CC)c(=O)oc2c1 [chromonar, 14.3-(beta-Diethylaminoethyl)-4-methyl-7-(carbethoxymethoxy)-coumarin hydrochloride]",restored cardiac function—nearly back to the control levels,diastolic volumes decreased,reconnects the relationship between work and flow in the heart,flow is higher,improved ventricular function greatly,improved dramatically,~70 min,–
CC(C)NCC(O)COc1cccc2ccccc12 (stereo not shown) [propranolol],–,–,–,–,–,continued to decrease,about 45 minutes,lower oxygen consumption than the chromonar treated group
